Data as given in the supplement of paper PMC4380931.

Experiments:
SKMEL28 [1] = assay: apoptotic fraction of cells (caspase-3 NucView488 positive); higher = more apoptosis
Protocol: (§1)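 BRAF V600E/D melanoma cell lines were seeded in 96-well plates, treated in 4 replicates with seven doses (3.16 nM to 3.16 uM) of RAF/MEK inhibitors for 24, 48 or 72 h, and stained with Hoechst 33342 (nuclei) and DEVD-NucView488 caspase-3 substrate. Plates were imaged on an Operetta. Relative viability is the cell count normalised to a DMSO-treated control; apoptosis fraction is the fraction of NucView488-positive nuclei.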

MMACSF = assay: as above
Protocol: as §1

K2 = assay: as above
Protocol: as §1

COLO858 [2] = assay: as above
Protocol: as §1

RVH421 = assay: as above
Protocol: as §1

SKMEL28 [3] = assay: relative viability (cell count relative to DMSO-treated control) (fraction of DMSO control); higher = more viable cells / less drug effect
Protocol: as §1

COLO858 [4] = assay: as above
Protocol: as §1

CN(C)CCOc1ccc(-c2nc(-c3ccncc3)c(-c3ccc4c(c3)CC/C4=N\O)[nH]2)cc1
Details | apoptotic fraction of cells, COLO858 [2] | apoptotic fraction of cells, K2 | apoptotic fraction of cells, MMACSF | apoptotic fraction of cells, RVH421 | apoptotic fraction of cells, SKMEL28 [1] | relative viability, COLO858 [4] | relative viability, SKMEL28 [3]
24 h, 0.00316 µM | 0.0451 | 0.00595 | 0.0448 | 0.0543 | – | 0.866 | –
24 h, 0.01 µM | 0.0421 | 0.00244 | 0.0421 | 0.0588 | – | 1.21 | –
24 h, 0.0316 µM | 0.0423 | 0.00221 | 0.0446 | 0.0478 | – | 1.2 | –
24 h, 0.1 µM | 0.0572 | 0.00264 | 0.0491 | 0.0495 | – | 1 | –
24 h, 0.316 µM | 0.0792 | 0.0035 | 0.0475 | 0.0536 | – | 0.946 | –
24 h, 1 µM | 0.123 | 0.0129 | 0.048 | 0.062 | – | 0.883 | –
24 h, 3.16 µM | 0.13 | 0.0372 | 0.0414 | 0.0619 | – | 0.811 | –
48 h, 0.00316 µM | 0.0512 | 0.00193 | 0.0482 | 0.05 | 0.0386 | 0.963 | 0.835
48 h, 0.01 µM | 0.0508 | 0.00284 | 0.0408 | 0.0534 | 0.034 | 1.03 | 1.45
48 h, 0.0316 µM | 0.0484 | 0.00174 | 0.041 | 0.0615 | 0.0305 | 0.929 | 1.59
48 h, 0.1 µM | 0.0742 | 0.00423 | 0.0486 | 0.0578 | 0.0338 | 0.584 | 1.29
48 h, 0.316 µM | 0.153 | 0.00888 | 0.0567 | 0.0567 | 0.042 | 0.431 | 1.1
48 h, 1 µM | 0.237 | 0.0309 | 0.0889 | 0.0708 | 0.0432 | 0.341 | 0.906
48 h, 3.16 µM | 0.341 | 0.0801 | 0.0951 | 0.0883 | 0.0466 | 0.277 | 0.643
72 h, 0.00316 µM | 0.0855 | – | 0.0417 | 0.0342 | 0.0377 | 1.07 | 1.08
72 h, 0.01 µM | 0.0692 | – | 0.0427 | 0.0346 | 0.0332 | 1.21 | 0.92
72 h, 0.0316 µM | 0.0676 | – | 0.0345 | 0.0361 | 0.0271 | 0.906 | 0.897
72 h, 0.1 µM | 0.077 | – | 0.0358 | 0.044 | 0.0305 | 0.605 | 0.734
72 h, 0.316 µM | 0.141 | – | 0.0666 | 0.0408 | 0.0316 | 0.494 | 0.542
72 h, 1 µM | 0.268 | – | 0.155 | 0.0371 | 0.0381 | 0.381 | 0.544
72 h, 3.16 µM | 0.424 | – | 0.224 | 0.033 | 0.259 | 0.29 | 0.373
